Experimental findings from BindingDB's records for doi:10.1111/cbdd.12579 (University of Karachi, 2015) are described below.

The target of one assay is Acetylcholinesterase (Electrophorus electricus, UniProt O42275). Nature of the assay: AChE and BChE Inhibition Assay. The settings on record: pH 8; 25 °C. The protocol:
(§1) A […] well plate was used for screening purpose. Each pyridopyrazine derivative was first dissolved in dimethyl sulfoxide to prepare the stock solutions. The synthetic compounds were then screened against electric eel acetylcholinesterase (eeAChE) and equine butyrylcholinesterase (BChE) at different concentrations (1 µM or 10 µM) of dimethyl sulfoxide as negative control in primarily screening. […] The reaction mixture which comprised of buffer solution (20 µL), synthetic compound (10 µL) and enzyme (0.5 and 3.4 U/mg, eeAChE or equine BChE) was primarily incubated for ten minutes at room temperature (25 C). Subsequently to the mixture, once the preincubation over, the acetylthiocholine iodide or butyrylthiocholine chloride (10 μL of 10 mM) was added and incubated it further for

Assay [1] concerns the target Carboxylic ester hydrolase (Equus caballus, UniProt Q9N1N9). Nature of the assay: AChE and BChE Inhibition Assay. Conditions: pH 8; 25 °C. The protocol:
as §1

Structures are written as SMILES.

Sequence of Acetylcholinesterase (O42275 whole entry): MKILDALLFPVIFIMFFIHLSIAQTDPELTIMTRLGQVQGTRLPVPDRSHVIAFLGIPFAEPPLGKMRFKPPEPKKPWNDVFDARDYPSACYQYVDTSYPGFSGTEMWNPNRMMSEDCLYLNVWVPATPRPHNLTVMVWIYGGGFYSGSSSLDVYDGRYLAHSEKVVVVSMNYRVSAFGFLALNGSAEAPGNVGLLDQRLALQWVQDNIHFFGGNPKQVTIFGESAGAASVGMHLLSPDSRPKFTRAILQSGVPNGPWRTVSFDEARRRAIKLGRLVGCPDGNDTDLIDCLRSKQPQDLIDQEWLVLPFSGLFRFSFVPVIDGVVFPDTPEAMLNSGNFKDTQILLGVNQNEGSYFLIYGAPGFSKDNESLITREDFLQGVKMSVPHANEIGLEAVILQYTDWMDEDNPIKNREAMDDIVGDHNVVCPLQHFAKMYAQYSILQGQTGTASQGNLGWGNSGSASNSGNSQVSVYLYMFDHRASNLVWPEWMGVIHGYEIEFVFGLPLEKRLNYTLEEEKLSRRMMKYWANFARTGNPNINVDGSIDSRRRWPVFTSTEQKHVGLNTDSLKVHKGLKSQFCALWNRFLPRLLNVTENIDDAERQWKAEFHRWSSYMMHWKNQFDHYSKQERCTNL
Sequence of Carboxylic ester hydrolase (Q9N1N9 whole entry): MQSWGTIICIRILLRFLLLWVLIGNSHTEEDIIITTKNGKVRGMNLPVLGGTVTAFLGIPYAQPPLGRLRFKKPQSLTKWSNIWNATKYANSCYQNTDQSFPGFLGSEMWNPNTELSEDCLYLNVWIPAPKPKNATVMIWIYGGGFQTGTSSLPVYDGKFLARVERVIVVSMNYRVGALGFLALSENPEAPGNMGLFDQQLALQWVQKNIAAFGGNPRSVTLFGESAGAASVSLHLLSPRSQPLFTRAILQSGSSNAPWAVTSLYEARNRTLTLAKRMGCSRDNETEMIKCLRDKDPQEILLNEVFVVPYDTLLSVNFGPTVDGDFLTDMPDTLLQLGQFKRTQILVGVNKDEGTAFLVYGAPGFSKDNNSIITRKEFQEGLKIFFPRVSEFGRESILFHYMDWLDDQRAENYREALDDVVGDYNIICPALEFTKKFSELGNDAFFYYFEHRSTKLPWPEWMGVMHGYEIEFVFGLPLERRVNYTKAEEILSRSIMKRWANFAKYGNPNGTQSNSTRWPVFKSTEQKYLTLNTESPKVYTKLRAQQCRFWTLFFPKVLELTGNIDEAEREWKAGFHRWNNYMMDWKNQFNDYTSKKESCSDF

Regarding `O=[N+]([O-])c1cccc(-c2cnc3cccnc3n2)c1` [3-(3′-Nitrophenyl)pyrido[2,3-b]pyrazine (6n)], the IC50 against Acetylcholinesterase is 0.466 µM; in assay [1], 1.89 µM. As for `Fc1cccc(-c2cnc3cccnc3n2)c1` [3-(3′-Fluorophenyl)pyrido[2,3-b]pyrazine (6f)], the IC50 at Acetylcholinesterase is 0.899 µM; in assay [1], 79.8 µM. On the same counts, the results for `Cc1ccc(-c2cnc3cccnc3n2)cc1` [3-(4′-Methylphenyl)pyrido[2,3-b]pyrazine (6b)] are 3.06 µM and 6.44 µM. On the same counts, the results for `O=[N+]([O-])c1ccccc1-c1cnc2cccnc2n1` [3-(2′-Nitrophenyl)pyrido[2,3-b]pyrazine (6o)] are 3 µM and 22.3 µM.

In the case of `CN(C)C(=O)Oc1cccc([N+](C)(C)C)c1` [m-Trimethylammoniumphenyldimethylcarbamate], it took 49.6 µM to reach half-maximal inhibition in assay [1] (IC50).

Turning to `c1cnc2nc3c(nc2c1)CCCC3` [6,7,8,9-tetrahydropyrido[2,3-b]quinoxaline (6q)], the IC50 on Acetylcholinesterase stood at 5.78 µM; in assay [1], 10.9 µM. On the same counts, the results for `Fc1ccc(-c2cnc3cccnc3n2)cc1` [3-(4′-Fluorophenyl)pyrido[2,3-b]pyrazine (6e)] are 2.45 µM and 11.2 µM. For the compound `Ic1ccc(-c2cnc3cccnc3n2)cc1` [3-(4′-Iodophenyl)pyrido[2,3-b]pyrazine (6l)], the values for the IC50 (against Acetylcholinesterase; in assay [1]) were 4.05 µM and 31.2 µM, respectively. On the same counts, the results for `Clc1ccccc1-c1cnc2cccnc2n1` [3-(2′-Chlorophenyl)pyrido[2,3-b]pyrazine (6i)] are 2.52 µM and 9.67 µM. In the case of `O=[N+]([O-])c1ccc(-c2cnc3cccnc3n2)cc1` [3-(4′-Nitrophenyl)pyrido[2,3-b]pyrazine (6m)], the concentration for half-maximal inhibition (IC50) was determined as 1.97 µM on Acetylcholinesterase and 20.8 µM in assay [1]. On the same counts, the results for `Brc1ccccc1-c1cnc2cccnc2n1` [3-(2′-Bromophenyl)pyrido[2,3-b]pyrazine (6k)] are 4.03 µM and 7.45 µM. On the same counts, the results for `Brc1cccc(-c2cnc3cccnc3n2)c1` [3-(3′-Bromophenyl)pyrido[2,3-b]pyrazine (6j)] are 3.12 µM and 11.5 µM.

With `Clc1ccc(-c2cnc3cccnc3n2)cc1` [3-(4′-Chlorophenyl)pyrido[2,3-b]pyrazine (6g)], the figures for the IC50 (on Acetylcholinesterase; in assay [1]) were 2.59 µM and 2.63 µM, respectively.

Regarding `Cc1cccc(-c2cnc3cccnc3n2)c1` [3-(3′-Methylphenyl)pyrido[2,3-b]pyrazine (6c)], the results for the IC50 (against Acetylcholinesterase; in assay [1]) were 5.88 µM and 0.583 µM, respectively. On the same counts, the results for `Cc1ccccc1-c1cnc2cccnc2n1` [3-(2′-Methylphenyl)pyrido[2,3-b]pyrazine (6d)] are 5.39 µM and 21.2 µM.

Regarding `c1ccc(-c2cnc3cccnc3n2)cc1` [3-Phenylpyrido[2,3-b]pyrazine (6a)], the values for the IC50 (against Acetylcholinesterase; in assay [1]) were 9.65 µM and 35.4 µM, respectively. Take `Clc1cccc(-c2cnc3cccnc3n2)c1` [3-(3′-Chlorophenyl)pyrido[2,3-b]pyrazine (6h)]: the IC50 against Acetylcholinesterase came to 1.26 µM; in assay [1], 12.1 µM. On the same counts, the results for `c1cnc2nc(-c3ccc(N4CCCCC4)cc3)cnc2c1` [3-(4′-(Piperidin-1-yl)phenyl)pyrido[2,3-b]pyrazine (6p)] are 4.75 µM and 3.91 µM.
